Assay results reported in patent publication US11555014B2, “High penetration prodrug compositions of prostaglandins and related compounds” (Techfields Pharma Co., Ltd., priority 2006, dated 2023).

Key:
[1] = In vitro penetration rate across isolated human skin in modified Franz cells; settings: 10% solution in pH 7.4 phosphate buffer (0.2 M), n=5
Experimental: The penetration rates of HPPs and their parent drugs through human skin were measured in vitro by modified Franz cells. The Franz cells have two chambers, the top sample chamber and the bottom receiving chamber. The human skin tissue (360-400 μm thick) that separates the top and the receiving chambers was isolated from the anterior or posterior thigh areas.
The compound tested (2 mL, 20% in 0.2 M phosphate buffer, pH. 7.4) were added to the sample chamber of a Franz cell. The receiving chamber contains 10 ml of 2% bovine serum albumin in saline which was stirred at 600 rpm. The cumulative amounts of the tested compounds penetrating the skin versus time were determined by high-performance liquid chromatography (HPLC) method.

[2] = test system: rats; experiment: Sexual behaviour (solicitation, copulation) of rats after application to genital area; assay type: in vivo, rat
Experimental: The HPP of the invention can diffuse through human skin in very high rate (˜1 mg/h/cm^2) and can provide almost side-effects-free methods of treating erectile dysfunction or enhancing female sexual arousal. About 0.01 ml of 0.0005% [˜0.05 μg (microgram)] N,N-diethylaminoethyl 11,15-dihydroxy-9-oxoprost-13-en-1-oate.AcOH in pH 7.0 phosphate buffer (0.1 M) was applied to genital area of male rats (30 rats) once per day for 5 days.
When same amount of N,N-diethylaminoethyl 11,15-dihydroxy-9-oxoprost-13-en-1-oate.AcOH in pH 7.0 phosphate buffer (0.1 M) were applied to genital area of both male rats (30 rats) and female rats (30 rates) once per day for 5 days.

[3] = Solubility in water; assay type: physicochemical
Experimental: 37.7 g (0.1 mol) of sodium 11,15-dihydroxy-9-oxoprost-13-en-1-oate was dissolved in 100 ml of acetonitrile. 26.1 g (0.1 mol) of 2-Bromo-N,N-diethylethylamine.HBr and 8.6 g of sodium bicarbonate were added into the reaction mixture. The mixture was stirred for overnight at RT. The solvents were evaporated off. 250 ml of ethyl acetate was added into the reaction mixture and the mixture was washed with water (3×100 ml). The organic solution was dried over anhydrous sodium sulfate. Sodium sulfate was removed by filtration. 6 g of acetic acid was added into the reaction mixture with stirring. Hexane (200 ml) was added. The solid product was collected by filtration. After drying, it yielded 42 g of the desired product (81.8%). Hygroscopic product; Solubility in water: 100 mg/ml; Elementary analysis: C28H51NO7; MW: 513.37. Calculated % C, 65.47; H, 10.01; N, 2.73; O, 21.80. Found % C, 65.42; H, 10.03; N, 2.70; O, 21.85.
43.7 g (0.1 mol) of 11,15-diacetoxy-9-oxoprosta-5,13-dien-1-oic acid was dissolved in 300 ml of chloroform. 20.6 g of N,N′-Dicyclohexylcarbodiimide was added into the reaction mixture. 11.7 g of N,N-diethylaminoethylamine was added into the reaction mixture. The mixture was stirred for 3 hours at RT. The solid was removed by filtration. The chloroform solution was washed with 5% NaHCO3 (2×100 ml) and water (3×100 ml). The organic solution was dried over anhydrous sodium sulfate. Sodium sulfate was removed by filtration. 6 g of acetic acid was added into the reaction mixture with stirring. Hexane (200 ml) was added. The solid product was collected by filtration. After drying, it yielded 45 g of the desired product (85.8%). Hygroscopic product; Solubility in water: 100 mg/ml; Elementary analysis: C34H59NO9S; MW: 657.90. Calculated % C, 62.07; H, 9.04; N, 2.13; O, 21.89; S, 4.87. Found % C, 62.02; H, 9.06; N, 2.11; O, 21.95; S, 4.86.
49.9 g (0.1 mol) of 9,11,15-triacetoxyprost-13-en-1-oic acid was dissolved in 300 ml of chloroform. 20.6 g of N,N′-Dicyclohexylcarbodiimide was added into the reaction mixture. 13.1 g of dimethylaminoethyl mercaptan was added into the reaction mixture. The mixture was stirred for 3 hours at RT. The solid was removed by filtration. The chloroform solution was washed with 5% NaHCO3 (2×100 ml) and water (3×100 ml). The organic solution was dried over anhydrous sodium sulfate. Sodium sulfate was removed by filtration. 6 g of acetic acid was added into the reaction mixture with stirring. Hexane (200 ml) was added. The solid product was collected by filtration. After drying, it yielded 45 g of the desired product (85.8%). Hygroscopic product; Solubility in water: 100 mg/ml; Elementary analysis: C32H53NO9; MW: […] Calculated % C, 64.51; H, 8.97; N, 2.35; O, 24.17. Found % C, 64.47; H, 8.99; N, 2.34; O, 24.20.
37.7 g (0.1 mol) of sodium 9,11,15-trihydroxyprosta-5,13-dien-1-oate was dissolved in 100 ml of acetonitrile. 39 g (0.15 mol) of 2-Bromo-N,N-diethylethylamine.HBr in ethyl acetate was added into the reaction mixture. The mixture was stirred for 3 h at RT. Then 8 g of sodium bicarbonate was added into the reaction mixture. The mixture is stirred for another 2 h at RT. The solvents were evaporated off. 250 ml of ethyl acetate was added into the reaction mixture and the mixture was washed with water (3×100 ml). The organic solution was dried over anhydrous sodium sulfate. Sodium sulfate was removed by filtration. 6 g of acetic acid was added into the reaction mixture with stirring. […] Calculated % C, 65.47; H, 10.01; N, 2.73; O, 21.80. […]

[4] = test system: cats with ocular hypertension; experiment: Intraocular pressure (IOP) reduction in cats with ocular hypertension produced by laser trabeculoplasty; assay type: in vivo, cat; settings: for Intraocular pressure, 24 hours after administration / Intraocular pressure, 36 hours after administration / Intraocular pressure, 48 hours after administration / Intraocular pressure, 60 hours after administration / Intraocular pressure, 72 hours after administration: one drop topical every 12 hours, 6 doses; for Intraocular pressure, baseline: prior to treatment
Experimental: The ability of certain compounds of the present invention to reduce intraocular pressure (IOP) was evaluated in cats with ocular hypertension produced by previously done laser trabeculoplastry. IOP was determined with a pneumatonometer after light corneal anesthesia with dilute proparacaine. Baseline IOP was determined prior to treatment with the test compound aqueous solution. 6 divided doses were administered over a period of 3 days (once every 12 hours). IOP was determined 24 hours after the initial dose and then once every 12 hours. The therapeutically efficient amount is typically between 0.001 and 0.01% in pH 7.2 phosphate buffer (0.1 M). The treatment was carried out in that one drop (about 30 micro liter) of the composition. The results of N,N-diethylaminoethyl 11,15-dihydroxy-9-oxoprost-13-en-1-oate.AcOH (A), N,N-diethylaminoethyl 11,15-dihydroxyl-9-oxoprosta-5,13-dien-1-oate.AcOH (B), N,N-diethylaminoethyl 9,11,15-trihydroxyprosta-5,13-dien-1-oate.AcOH(C), N,N-diethylaminoethyl 9,11-dihydroxy-15-keto-20-ethylprost-5,13-dien-1-oate.AcOH (9,11-dihydroxy-15-keto-20-ethylprostaglandin F2α N,N-diethylaminoethyl ester) (D), N,N-diethylaminoethyl (Z)-7-{(1R,2R,3R,5S)-3,5-dihydroxy-2-[(1E,3R)-3-hydroxy-4-[(α,α,α-trifluoro-m-tolyl)oxy]-1-butenyl]cyclopentyl}-5-heptenoate.AcOH (E), N,N-diethylaminoethyl (Z)-7{(1R,2R,3R,5S)-3,5-dihydroxy-2-[(3R)-3-hydroxy-5-phenylpentyl]cyclopentyl}-5-heptenoate.AcOH (F), and N,N-diethylaminoethyl (Z)-7-{(1R,2R,3R,5S)-3,5-Dihydroxy-2-[(1E,3S)-3-hydroxy-5-phenyl-1-pentenyl]cyclopentyl}-heptenoate.AcOH (G) are shown in Table 2.

[5] = test system: cat eye; experiment: Irritative effect or ocular discomfort in the cat eye after topical application; assay type: in vivo; settings: first 2 hours, scale 0 (no discomfort) to 4 (maximal irritation, complete lid closure)
Experimental: Irritative effect or ocular discomfort in the cat eye of naturally occurring and modified prostaglandins and their novel prodrugs were evaluated during the first hours after the topical application of the respective test drug. The ocular discomfort was graded on a scale from 0 to 4, 0 indicating complete absence of any signs of discomfort, and 4 indicating maximal irritation as obvious from complete lid closure.

[6] = test system: rabbit eye; experiment: Conjunctival hyperemia in the rabbit eye after topical application; assay type: in vivo; settings: first 2 hours, scale 0 (no hyperemia) to 4 (marked hyperemia with conjunctive chemosis)
Experimental: Conjunctival hyperemia in the rabbit eye of naturally occurring and modified prostaglandins and their novel prodrugs was evaluated during the first 2 hours after topical application of the respective test drug. The conjunctival hyperemia was graded on a scale from 0 to 4, 0 indicating complete absence of any hyperemia, and 4 indicating marked hyperemia with conjunctive chemosis.

[7] = Milosovich et al., J. Pharm. Sci., 82, 227 (1993); cited from earlier work
[8] = about 0.01 ml of 0.0005% (~0.05 μg) applied to genital area of male rats once per day for 5 days
[9] = same amount applied to genital area of both male and female rats once per day for 5 days

CC(=O)O.CCCCCC(O)C=CC1C(O)CC(=O)C1CCCCCCC(=O)OCCN(CC)CC (centres unmarked) [N,N-diethylaminoethyl 11,15-dihydroxy-9-oxoprost-13-en-1-oate.AcOH]
In vitro penetration rate (apparent flux), prodrug compounds [1]: 1.01 mg/cm^2/h | Increase in copulation compared to rats not given the drug [2, 8]: 4 fold | Increase in solicitation compared to rats not given the drug [2, 8]: 6 fold | Discomfort of treated rats ([2]; applied to genital area of rats once per day for 5 days): did not show any discomfort | Increase in copulation compared to rats not given the drug [2, 9]: 6 fold | Increase in solicitation compared to rats not given the drug [2, 9]: 6 fold | Solubility in water [3]: 100 mg/mL

CC(=O)O.CCCCCC(O)C=C[C@H]1C(O)CC(O)[C@@H]1CC=CCCCC(=O)OCCN(CC)CC (some centres unmarked) [N,N-diethylaminoethyl 9,11,15-trihydroxyprosta-5,13-dien-1-oate.AcOH]
Intraocular pressure, 24 hours after administration ([4]; dose 0.001%): 15.5 ± 0.5 | Intraocular pressure, 36 hours after administration ([4]; dose 0.001%): 15.6 ± 0.6 | Intraocular pressure, 48 hours after administration ([4]; dose 0.001%): 15.7 ± 0.5 | Intraocular pressure, 60 hours after administration ([4]; dose 0.001%): 15.6 ± 0.7 | Intraocular pressure, 72 hours after administration ([4]; dose 0.001%): 15.5 ± 0.6 | Intraocular pressure, baseline ([4]; group dosed 0.001%): 22.5 ± 0.7 | In vitro penetration rate (apparent flux), prodrug compounds [1]: 0.94 mg/cm^2/h | Degree of irritative effect ([5]; dose 0.001% topical): 1 | Degree of irritative effect (conjunctival hyperemia) ([6]; dose 0.001% topical): 1 | Solubility in water [3]: 100 mg/mL

CC(=O)O.CCCCCCCC(=O)C=C[C@H]1C(O)CC(O)[C@@H]1CC=CCCCC(=O)OCCN(CC)CC (some centres unmarked) [N,N-diethylaminoethyl 9,11-dihydroxy-15-keto-20-ethylprost-5,13-dien-1-oate.AcOH]
Intraocular pressure, 24 hours after administration ([4]; dose 0.01%): 16.5 ± 0.6 | Intraocular pressure, 36 hours after administration ([4]; dose 0.01%): 16.7 ± 0.4 | Intraocular pressure, 48 hours after administration ([4]; dose 0.01%): 16.8 ± 0.6 | Intraocular pressure, 60 hours after administration ([4]; dose 0.01%): 17.1 ± 0.5 | Intraocular pressure, 72 hours after administration ([4]; dose 0.01%): 16.8 ± 0.5 | Intraocular pressure, baseline ([4]; group dosed 0.01%): 22.0 ± 0.6 | In vitro penetration rate (apparent flux), prodrug compounds [1]: 1.05 mg/cm^2/h | Degree of irritative effect ([5]; dose 0.01% topical): 1 | Degree of irritative effect (conjunctival hyperemia) ([6]; dose 0.01% topical): 1

N,N-diethylaminoethyl 11,15-diacetoxy-9-oxoprosta-5,13-dien-1-oamide.AcOH
Solubility in water [3]: 100 mg/mL

CC(=O)O.CCCCCC(C=C[C@H]1C(OC(C)=O)CC(OC(C)=O)[C@@H]1CCCCCCC(=O)SCCN(C)C)OC(C)=O (some centres unmarked) [S—(N,N-dimethylaminoethyl) 9,11,15-triacetoxythioprost-13-en-1-oate.AcOH]
Solubility in water [3]: 100 mg/mL

CN(C)CCCC(=O)O[C@H]1CC[C@H]2[C@@H]3CCC4=CC(=O)CC[C@]4(C)[C@H]3CC[C@]12C.Cl [TSBH, testosteronyl-4-dimethylaminobutyrate.HCl]
Diffusion through human skin, times faster than the parent drug (TS) [7]: about 60 times

CC(=O)O.CCN(CC)CCOC(=O)CCC/C=C\C[C@@H]1[C@@H](/C=C/[C@@H](O)COc2cccc(C(F)(F)F)c2)[C@H](O)C[C@@H]1O [N,N-diethylaminoethyl (Z)-7-{(1R,2R,3R,5S)-3,5-dihydroxy-2-[(1E,3R)-3-hydroxy-4-[(α,α,α-trifluoro-m-tolyl)oxy]-1-butenyl]cyclopentyl}-5-heptenoate.AcOH]
Intraocular pressure, 24 hours after administration ([4]; dose 0.001%): 15.1 ± 0.4 | Intraocular pressure, 36 hours after administration ([4]; dose 0.001%): 15.0 ± 0.5 | Intraocular pressure, 48 hours after administration ([4]; dose 0.001%): 15.0 ± 0.4 | Intraocular pressure, 60 hours after administration ([4]; dose 0.001%): 14.9 ± 0.3 | Intraocular pressure, 72 hours after administration ([4]; dose 0.001%): 15.1 ± 0.4 | Intraocular pressure, baseline ([4]; group dosed 0.001%): 22.1 ± 0.4 | In vitro penetration rate (apparent flux), prodrug compounds [1]: 0.91 mg/cm^2/h | Degree of irritative effect ([5]; dose 0.001% topical): 1 | Degree of irritative effect (conjunctival hyperemia) ([6]; dose 0.001% topical): 1

CC(=O)O.CCN(CC)CCOC(=O)CCC/C=C\C[C@@H]1[C@@H](CC[C@@H](O)CCc2ccccc2)[C@H](O)C[C@@H]1O [N,N-diethylaminoethyl (Z)-7{(1R,2R,3R,5S)-3,5-dihydroxy-2-[(3R)-3-hydroxy-5-phenylpentyl]cyclopentyl}-5-heptenoate.AcOH]
Intraocular pressure, 24 hours after administration ([4]; dose 0.001%): 15.6 ± 0.5 | Intraocular pressure, 36 hours after administration ([4]; dose 0.001%): 15.7 ± 0.4 | Intraocular pressure, 48 hours after administration ([4]; dose 0.001%): 15.6 ± 0.5 | Intraocular pressure, 60 hours after administration ([4]; dose 0.001%): 15.5 ± 0.4 | Intraocular pressure, 72 hours after administration ([4]; dose 0.001%): 15.6 ± 0.6 | Intraocular pressure, baseline ([4]; group dosed 0.001%): 22.5 ± 0.5 | In vitro penetration rate (apparent flux), prodrug compounds [1]: 0.95 mg/cm^2/h | Degree of irritative effect ([5]; dose 0.001% topical): 1 | Degree of irritative effect (conjunctival hyperemia) ([6]; dose 0.001% topical): 1
